For this series the following is noted: from C=CCCc1ccccc1Cc1cnc(-c2cc3nc(C)c([C@H](OC(C)(C)C)C(=O)OCC)c(N4CCC(C)(OCC=C)CC4)n3n2)s1, rcm bond, Hoveyda-Grubbs II (7 mol%), DCE, 3.67 mM, 70.0 °C, 2.0 h.

The structures appear in SMILES notation. Like-named read-outs stand apart in the source and are kept apart here.

Take `CCOC(=O)[C@@H](OC(C)(C)C)c1c(C)nc2cc3nn2c1N1CCC(C)(CC1)OCC=CCCc1ccccc1Cc1cnc-3s1`: the ring closure, yield after HPLC is, setting by setting: (19-membered ring) 8.65%; (20-membered ring) 19.7%.

Source of the values: US9663536B2, “Inhibitors of human immunodeficiency virus replication” (priority 2013, dated 2017).
